Laboratory results taken from patent US20210024542A1 (Torcept Therapeutics, Inc., priority 2018, published 2021).

Key:
TF-1 = experiment: OncoPanel cell proliferation assay, TF-1; format: cell-based, human; conditions: for Cell Count Activity Area: TF-1, scale 0-10
Method: (§1) Cells were grown in RPMI 1640, 10% FBS, 2 mM L-alanyl-L-glutamine, 1 mM Na pyruvate, or a special medium. Cells were seeded into 384-well plates and incubated in a humidified atmosphere of 5% CO2 at 37° C. Compounds were added the day following cell seeding. At the same time, a time zero untreated cell plate was generated. After a 3-day incubation period, cells were fixed and stained to allow fluorescence imaging of nuclei. Compounds (1 mM stock solutions) were serially diluted in half-log steps from the highest test concentration ([…]), and assayed over 10 concentrations with a maximum assay concentration of 0.1% DMSO. Automated fluorescence microscopy was carried out using a Molecular Devices ImageXpress Micro XL high-content imager, and images were collected with a 4× objective. 16-bit TIFF images were acquired and analyzed with MetaXpress 5.1.0.41 software.
(§2) Cell proliferation was measured by the fluorescence intensity of an incorporated nuclear dye. The output is referred to as the relative cell count, where the measured nuclear intensity is transformed to percent of control (POC) using the following formula: […]
(§3) Cellular response parameters were calculated using nonlinear regression to a sigmoidal single-site dose response model:
(§4) Where y is a response measured at concentration x, A and B are the lower and upper limits of the response, C is the concentration at the response midpoint (EC50), and D is the Hill Slope (Ref. 1).
(§5) EC50 is the test compound concentration at the curve inflection point or half the effective response (parameter C of the fitted curve solution). GI50 is the concentration needed to reduce the observed growth by half (midway between the curve maximum and the time zero value). “Cell Count Activity Area” is an estimate of the integrated area above the curve (Barretina, et al. The Cancer Cell Line Encyclopedia enables predictive modelling of anticancer drug sensitivity. Nature 483: 603-607). […] In rare instances, values <0 or >10 may be observed. […] Curve-fitting, calculations, and report generation was performed using a custom data reduction engine and MathIQ based software (AIM).

RKOE6 = experiment: OncoPanel cell proliferation assay, RKOE6; conditions: RKOE6, scale 0-10
Method: (§7) Cells were seeded into 384-well plates and incubated in a humidified atmosphere of 5% CO2 at 37° C. Compounds were added the day following cell seeding. At the same time, a time zero untreated cell plate was generated. After a 3-day incubation period, cells were fixed and stained to allow fluorescence imaging of nuclei. Compounds (1 mM stock solutions) were serially diluted in half-log steps from the highest test concentration (1 micromol), and assayed over 10 concentrations with a maximum assay concentration of 0.1% DMSO. Automated fluorescence microscopy was carried out using a Molecular Devices ImageXpress Micro XL high-content imager, and images were collected with a 4× objective. 16-bit TIFF images were acquired and analyzed with MetaXpress 5.1.0.41 software.

SNU-C2B = experiment: OncoPanel cell proliferation assay, SNU-C2B; format: cell-based, human; conditions: for Cell Count Activity Area: scale 0-10
Method: as §1, §2, §3, §4, §5

NCIH446 = experiment: OncoPanel cell proliferation assay, NCIH446; format: cell-based, human; conditions: for Cell Count Activity Area: NCIH446, scale 0-10
Method: as §1, §2, §3, §4, §5

SCaBER = experiment: OncoPanel cell proliferation assay, SCaBER; format: cell-based, human; conditions: scale 0-10
Method: as §1, §2, §3, §4, §5

SW684 = experiment: OncoPanel cell proliferation assay, SW684; format: cell-based, human
Method: as §1, with “Cells” for “Cells were grown in RPMI 1640, 10% FBS, 2 mM L-alanyl-L-glutamine, 1 mM Na pyruvate, or a special medium. Cells”
as §2, §3, §4
(§6) GI50 is the concentration needed to reduce the observed growth by half (midway between the curve maximum and the time zero value). […] In rare instances, values <0 or >10 may be observed. […] Curve-fitting, calculations, and report generation was performed using a custom data reduction engine and MathIQ based software (AIM).

DMS114 = experiment: OncoPanel cell proliferation assay, DMS114; format: cell-based, human
Method: as §1, with “Cells” for “Cells were grown in RPMI 1640, 10% FBS, 2 mM L-alanyl-L-glutamine, 1 mM Na pyruvate, or a special medium. Cells”
as §2, §3, §4, §6

U-87 MG = experiment: OncoPanel cell proliferation assay, U-87 MG; format: cell-based, human; conditions: for Cell Count Activity Area: scale 0-10
Method: as §1, §2, §3, §4, §5

786-O = experiment: OncoPanel cell proliferation assay, 786-O; format: cell-based, human; conditions: 786-O, scale 0-10
Method: as §1, §2, §3, §4, §5

SK-MEL-28 = experiment: OncoPanel cell proliferation assay, SK-MEL-28; format: cell-based, human; conditions: for Cell Count Activity Area: SK-MEL-28, scale 0-10
Method: as §1, §2, §3, §4, §5

OVCAR3 = experiment: OncoPanel cell proliferation assay, OVCAR3; conditions: for Cell Count Activity Area: OVCAR3, scale 0-10
Method: as §7

AsPC-1 = experiment: OncoPanel cell proliferation assay, AsPC-1; conditions: for Cell Count Activity Area: AsPC-1, scale 0-10
Method: as §7

[1] = Homo sapiens, 72 h, 3-day incubation, read-out: Cell Count IC50

Compound | Cell Count Activity Area (TF-1) | Cell Count Activity Area (RKOE6) | Cell Count Activity Area (SNU-C2B) | Cell Count Activity Area (NCIH446) | Cell Count Activity Area (SCaBER) | Cell Count Activity Area (U-87 MG) | Cell Count Activity Area (786-O) | Cell Count Activity Area (SK-MEL-28) | Cell Count Activity Area (OVCAR3) | Cell Count Activity Area (AsPC-1) | other results
CN[C@@H]1C[C@H]2O[C@@](C)([C@@H]1OC)n1c3ccccc3c3c4c(c5c6ccccc6n2c5c31)C(=O)NC4 [Staurosporine, reference compound] | 3.31 | 3.96 | 3.80 | 2.81 | 6.03 | 3.25 | 4.87 | 2.81 | 3.41 | 3.28 | GI50 (SW684; Homo sapiens, 72 h, SW684, 3-day incubation, read-out: Cell Count GI50): 0.95 nM; EC50 (DMS114; Homo sapiens, DMS-114, 72 h, DMS114, 3-day incubation, read-out: Cell Count EC50): 21 nM
CO[C@H]1C[C@@H]2CC[C@@H](C)[C@@](O)(O2)C(=O)C(=O)N2CCCC[C@H]2C(=O)O[C@H]([C@H](C)C[C@@H]2CC[C@@H](O)[C@H](OC)C2)CC(=O)[C@H](C)/C=C(\C)[C@@H](O)[C@@H](OC)C(=O)[C@H](C)C[C@H](C)/C=C/C=C/C=C/1C [Rapamycin, reference compound] | 1.52 | 4.61 | 1.99 | 1.69 | 5.25 | 3.79 | 4.17 | 2.50 | 2.08 | 1.48 | EC50 (TF-1; Homo sapiens, 72 h, TF-1, 3-day incubation, read-out: Cell Count EC50): > 1000 nM; GI50 (TF-1; Homo sapiens, 72 h, TF-1, 3-day incubation, read-out: Cell Count GI50): > 1000 nM; IC50 (TF-1; Homo sapiens, 72 h, TF-1, 3-day incubation, read-out: Cell Count IC50): > 1000 nM; EC50 (SNU-C2B; Homo sapiens, 72 h, 3-day incubation, read-out: Cell Count EC50): > 1000 nM; GI50 (SNU-C2B; Homo sapiens, 72 h, 3-day incubation, read-out: Cell Count GI50): > 1000 nM; IC50 (SNU-C2B; [1]): > 1000 nM; EC50 (NCIH446; Homo sapiens, NCI-H446, 72 h, NCIH446, 3-day incubation, read-out: Cell Count EC50): > 1000 nM; IC50 (NCIH446; Homo sapiens, NCI-H446, 72 h, NCIH446, 3-day incubation, read-out: Cell Count IC50): > 1000 nM; IC50 (SW684; Homo sapiens, 72 h, SW684, 3-day incubation, read-out: Cell Count IC50): > 1000 nM; Cell Count Activity Area (SW684; SW684, scale 0-10): 2.81; Cell Count Activity Area (DMS114; DMS114, scale 0-10): 4.14; IC50 (DMS114; Homo sapiens, DMS-114, 72 h, DMS114, 3-day incubation, read-out: Cell Count IC50): > 1000 nM; IC50 (U-87 MG; [1]): > 1000 nM; IC50 (SK-MEL-28; Homo sapiens, 72 h, SK-MEL-28, 3-day incubation, read-out: Cell Count IC50): > 1000 nM; IC50 (OVCAR3; Homo sapiens, OVCAR-3, 72 h, read-out: Cell Count IC50): > 1000 nM; EC50 (AsPC-1; Homo sapiens, ASPC1, 72 h, read-out: Cell Count EC50): > 1000 nM; GI50 (AsPC-1; Homo sapiens, ASPC1, 72 h, read-out: Cell Count GI50): > 1000 nM; IC50 (AsPC-1; Homo sapiens, ASPC1, 72 h, read-out: Cell Count IC50): > 1000 nM
